Test results taken from patent publication US20260356834A1, “ANTICONVULSIVE COMPOUNDS AND USES THEREOF” (Jazz Pharmaceuticals Research UK Limite, priority 2023, published 2026).
“And” between values parts separate entries of the source, which are not always exact repeats. Equal entries are not always repeated. Marks after values point to notes of the source that are not given here.

What was measured:
[1] = system: C57BL/6J mice; test: mouse maximal electroshock seizure threshold model using minimal sample sizes (mini-MEST)
Procedure: An increase in seizure threshold is indicative of an anticonvulsive effect.
The ability of a test compound to alter the stimulus intensity, expressed as current (mA), required to induce the presence of tonic hind limb extensor convulsions, is assessed in the MEST.
In the mini-MEST test, a lower n number is used.
Male C57BL/6J mice were housed in groups of 6. Mice were kept under standard conditions (12 hour light cycle; light intensity of 25-75 lux) and fed a diet of certified rodent CR 14% protein rodent diet (LabDiet® 4CR4). Mice were 8-9 weeks old at the start of the study.
Naïve mice were acclimatised to the procedure room in their home cages for up to 7 days, with food and water available ad libitum.
All animals were weighed at the beginning of the study and randomly assigned to treatment groups based on a mean distribution of body weight across groups.
The first animal within a treatment group was given a shock at the expected or estimated CC50 current. For subsequent animals, the current was lowered or raised depending on the convulsions outcome from the preceding animal in log scale intervals.
Data generated from each treatment group were used to calculate the CC50±SEM values for the treatment group.
Vehicle: (5% ethanol, 10% Solutol® (Kolliphor® HS 15), 85% saline). 1 mL of ethanol, 2 mL of Solutol™ were warmed to 60 °C, in 17 mL of 0.9% saline.
Test compounds: 5-50 mg/kg in a 1:2:17 ethanol:Solutol®:saline formulation (as used for vehicle).

[2] = system: RjOrl: Swiss mice; test: mouse 6 Hz (44 mA) model of partial seizures; format: in vivo; conditions: for Mean Forelimb Clonus +/− SEM: score 0-2; for Change from vehicle 2 (forelimb clonus): vs vehicle 2 (1:2:17)
From the text: The 6 Hz (44 mA) model of partial seizures, which detects anticonvulsant activity, follows that described by Brown et al. 1953.
[…] A decrease in forelimb clonus score is indicative of protection from seizure and an anticonvulsive effect.
When conducted at a 44 mA stimulus intensity in mice, the 6 Hz test can differentiate compounds with potential for the treatment of focal-onset seizures that are often resistant to current anti-epileptic drugs.
Male RjOrl: Swiss mice (Janvier Labs, 53940 Le Genest-Saint-Isle, France), 5 weeks old, weighing 27-38 g at the beginning of the experiment. Animals were acclimatized to the Test Facility for at least 5 days after delivery and randomly housed in groups of 5 to 8 in macrolon cages on wood litter with free access to food and water.
The animal house was maintained under artificial lighting (12 hours) between 7:00 and 19:00 in a controlled ambient temperature of 22±2 °C and relative humidity between 30-70%.
Before transcorneal stimulation, a drop of tetracaine solution (1%) was applied on each eye of the mouse for local anesthesia. Between 1-10 minutes later and at the designated pre-treatment (see below), the mice were administered a rectangular current (44 mA, rectangular pulse: 0.2 ms pulse width, 3 s duration, (6 Hz) via corneal electrodes connected to a constant current shock generator (Ugo Basile: type 7801).
The results for the number of seizures as reflected by forelimb clonus were recorded immediately after current administration. Forelimb clonus was scored as absent (0=no forelimb clonus), mild (1=clonus with one forelimb) and strong (2=clonus with both forelimbs). The experimenters were blinded to the treatment. […]
The administration volume was 10 mL/kg.
Due to the number of animals tested, the experiment was divided in 2 sub-experiments on 2 consecutive days with equivalent numbers of mice per group and per sub-experiment.
Data were discrete values so considered to be non-normally distributed based on validation data, therefore non-parametric tests were utilized. Quantitative data (scores) with the test substance were analyzed by comparing test compound-treated groups with the 1:2:17 vehicle control using Kruskal-Wallis test with Dunn's multiple comparisons test when the Kruskal-Wallis test was significant. Quantitative data with the reference substance were analyzed using Mann-Whitney U test as compared to saline vehicle.

[3] = system: C57BL/6J mice; test: mouse maximal electroshock seizure threshold model (MEST); format: in vivo
Procedure: Vehicle=1:2:17 ethanol:Solutol® (Kolliphor® HS 15):saline: 1 mL of ethanol and 2 mL of solutol were warmed to 60 °C and 17 mL of 0.9% saline was added slowly. […]
Vehicle=0.5% HPMC and 0.1% Tween 80:0.5% HPMC and 0.1% Tween 80 in water.

[4] = 10 mg/kg i.p., 15 min post dose
[5] = 10 mg/kg i.p., 30 min post dose
[6] = 10 mg/kg i.p., 60 min post dose
[7] = 30 mg/kg i.p., 30 min post dose
[8] = 10 mg/kg p.o., 30 min, HPMC vehicle
[9] = 10 mg/kg p.o., 30 min, vs HPMC vehicle
[10] = 50 mg/kg p.o., 30 min, HPMC vehicle
[11] = 25 mg/kg p.o., 15 min post dose
[12] = 25 mg/kg p.o., 60 min post dose
[13] = 50 mg/kg p.o., 30 min post dose
[14] = 50 mg/kg p.o., 60 min post dose
[15] = 50 mg/kg p.o., 120 min post dose
[16] = 50 mg/kg p.o., 240 min post dose

CCCc1cc(O)c(-c2c(C)ccn3ccnc23)c(O)c1 [Compound 2, 2-(7-Methylimidazo[1,2-a]pyridin-8-yl)-5-propylbenzene-1,3-diol]
CC50 +/− SEM [1, 4]: 67.5 ± 2.6 mA and 65.8 ± 1.9 mA | Change from vehicle (CC50) [1, 4]: 150% and 145% | CC50 +/− SEM [1, 5]: 35.3 ± 1.1 mA | Change from vehicle (CC50) [1, 5]: 32% | CC50 +/− SEM [1, 6]: 56.0 ± 1.6 mA | Change from vehicle (CC50) [1, 6]: 109% | CC50 +/− SEM [1, 7]: >131.0 mA | Change from vehicle (CC50) [1, 7]: 414% | Mean Forelimb Clonus +/− SEM ([2]; 10 mg/kg i.p., 30 min): 0.7 ± 0.1 | Change from vehicle 2 (forelimb clonus) ([2]; 10 mg/kg i.p., 30 min): −22% | Mean Forelimb Clonus +/− SEM ([2]; 30 mg/kg i.p., 15 min): 0.7 ± 0.1 | Change from vehicle 2 (forelimb clonus) ([2]; 30 mg/kg i.p., 15 min): −22% | Mean Forelimb Clonus +/− SEM ([2]; 60 mg/kg i.p., 30 min): 0.7 ± 0.1 | Change from vehicle 2 (forelimb clonus) ([2]; 60 mg/kg i.p., 30 min): −22% | sedation ([2]; 100 mg/kg i.p.): slight sedation observed | Mean Forelimb Clonus +/− SEM ([2]; 100 mg/kg i.p., 30 min): 0.3 ± 0.1 | Change from vehicle 2 (forelimb clonus) ([2]; 100 mg/kg i.p., 30 min): −67% | adverse signs ([2]; 10, 30 or 60 mg/kg i.p.): no adverse signs were noted | CC50 +/− SEM ([3]; 1 mg/kg i.p., 15 min, 1:2:17 ethanol:Solutol:saline): 26.0 ± 0.4 mA | Change from vehicle (CC50) ([3]; 1 mg/kg i.p., 15 min, vs 1:2:17 ethanol:Solutol:saline vehicle): 11%^### | CC50 +/− SEM ([3]; 5 mg/kg i.p., 15 min, 1:2:17 ethanol:Solutol:saline): 29.4 ± 0.9 mA | Change from vehicle (CC50) ([3]; 5 mg/kg i.p., 15 min, vs 1:2:17 ethanol:Solutol:saline vehicle): 26%^### | CC50 +/− SEM [3, 8]: 27.0 ± 0.7 mA | Change from vehicle (CC50) [3, 9]: 17%*** | CC50 +/− SEM ([3]; 30 mg/kg i.p., 30 min, 1:2:17 ethanol:Solutol:saline): 38.2 ± 1.5 mA | Change from vehicle (CC50) ([3]; 30 mg/kg i.p., 30 min, vs 1:2:17 ethanol:Solutol:saline vehicle): 64%^### | CC50 +/− SEM [3, 10]: 38.2 ± 0.5 mA | Change from vehicle (CC50) ([3]; 50 mg/kg p.o., 30 min, vs HPMC vehicle): 66%*** | CC50 +/− SEM ([3]; 60 mg/kg i.p., 30 min, 1:2:17 ethanol:Solutol:saline): 59.5 ± 2.6 mA | Change from vehicle (CC50) ([3]; 60 mg/kg i.p., 30 min, vs 1:2:17 ethanol:Solutol:saline vehicle): 155%^###

CCCc1cc(O)c(-c2c(C)c(Cl)cn3ccnc23)c(O)c1 [Compound 4, 2-(6-Chloro-7-methylimidazo[1,2-a]pyridin-8-yl)-5-propylbenzene-1,3-diol]
CC50 +/− SEM [1, 11]: 80.9 ± 3.7 mA | Change from vehicle (CC50) [1, 11]: 216% | CC50 +/− SEM ([1]; 25 mg/kg p.o., 30 min post dose): 92.9 ± 1.1 mA and 53.5 ± 3.4 mA and 106.6 ± 1.1 mA | CC50 +/− SEM [1, 12]: 70.5 ± 1.1 mA | Change from vehicle (CC50) [1, 12]: 176% | CC50 +/− SEM [1, 7]: 70.5 ± 1.1 mA | Change from vehicle (CC50) [1, 7]: 140% | CC50 +/− SEM [1, 13]: 80.9 ± 1.1 mA | Change from vehicle (CC50) [1, 13]: 145% | CC50 +/− SEM [1, 14]: >131.0 mA | Change from vehicle (CC50) [1, 14]: >297% | CC50 +/− SEM [1, 15]: 61.4 ± 1.1 mA | Change from vehicle (CC50) [1, 15]: 100% | CC50 +/− SEM [1, 16]: 61.4 ± 3.7 mA | Change from vehicle (CC50) [1, 16]: 100% | Mean Forelimb Clonus +/− SEM ([2]; 10 mg/kg i.p., 30 min): 1.00 ± 0.11 | Change from vehicle 2 (forelimb clonus) ([2]; 10 mg/kg i.p., 30 min): +54% | Mean Forelimb Clonus +/− SEM ([2]; 30 mg/kg i.p., 15 min): 0.30 ± 0.11 | Change from vehicle 2 (forelimb clonus) ([2]; 30 mg/kg i.p., 15 min): −54% | Mean Forelimb Clonus +/− SEM ([2]; 60 mg/kg i.p., 30 min): 0.30 ± 0.11 | Change from vehicle 2 (forelimb clonus) ([2]; 60 mg/kg i.p., 30 min): −54% | Mean Forelimb Clonus +/− SEM ([2]; 100 mg/kg i.p., 30 min): 0.11 ± 0.07 | Change from vehicle 2 (forelimb clonus) ([2]; 100 mg/kg i.p., 30 min): −83%** | sedation ([2]; 60 and 100 mg/kg i.p.): ***p < 0.001; relatively low forelimb seizure scores in the 1:2:17 vehicle group may impact data interpretation; slight to moderate sedation observed with Compound 4 at 60 and 100 mg/kg. | CC50 +/− SEM ([3]; 5 mg/kg p.o., 15 min, HPMC vehicle): 23.5 ± 2.1 mA | Change from vehicle (CC50) ([3]; 5 mg/kg p.o., 15 min, vs HPMC vehicle): 11% | CC50 +/− SEM [3, 8]: 22.5 ± 0.3 mA | Change from vehicle (CC50) [3, 9]: 14% | CC50 +/− SEM ([3]; 25 mg/kg p.o., 15 min, HPMC vehicle): 27.5 ± 1.3 mA | Change from vehicle (CC50) ([3]; 25 mg/kg p.o., 15 min, vs HPMC vehicle): 32%** | CC50 +/− SEM ([3]; 25 mg/kg p.o., 30 min, HPMC vehicle): 60.8 ± 2.9 mA | Change from vehicle (CC50) ([3]; 25 mg/kg p.o., 30 min, vs HPMC vehicle): 132%*** | CC50 +/− SEM [3, 10]: 92.5 ± 3.2 mA and 125.0 ± 33.4 mA | CC50 +/− SEM ([3]; 100 mg/kg p.o., 30 min, HPMC vehicle): 200.0 ± 3.7 mA | Change from vehicle (CC50) ([3]; 100 mg/kg p.o., 30 min, vs HPMC vehicle): 860%***
